Experiments:
Type in all cases: cell-based, murine
MBT-2 cells = assay: In vitro cell viability assay, MBT-2
A20 cells = assay: In vitro cell viability assay, A20
Pan02 cells = assay: In vitro cell viability assay (CellTiter-Glo), Pan02
Source text: No significant changes in body weights were noted.

## N.N.[Cl][Pt][Cl] [Cisplatin, reference compound]
MBT-2 cells
  IC50: 6.87 µM
A20 cells
  IC50: 1.07 µM
Pan02 cells
  IC50: 1.09 µM
